Laboratory results: US20220257775A1 (GLYCOMIMETICS, INC., priority 2019, published 2022)
pKd: −log10 of the molar value. “Also recorded” adds a separate entry of the source. Values belong to the compound of their own block, whether it stands above or below them.

Key:
[1] = biological target: T1, recombinant human E-selectin/CD63E Fc Chimera (Homo sapiens, UniProt P16581); assay: E-Selectin Activity - Analysis by SPR; type: binding; conditions: Biacore X100, E-selectin captured on anti-human IgG (Fc) chip
T1 construct: Fc (human IgG Fc fusion partner); purchased R & D systems
T1 sequence (P16581 with tags, fused parts or gaps limits assumed): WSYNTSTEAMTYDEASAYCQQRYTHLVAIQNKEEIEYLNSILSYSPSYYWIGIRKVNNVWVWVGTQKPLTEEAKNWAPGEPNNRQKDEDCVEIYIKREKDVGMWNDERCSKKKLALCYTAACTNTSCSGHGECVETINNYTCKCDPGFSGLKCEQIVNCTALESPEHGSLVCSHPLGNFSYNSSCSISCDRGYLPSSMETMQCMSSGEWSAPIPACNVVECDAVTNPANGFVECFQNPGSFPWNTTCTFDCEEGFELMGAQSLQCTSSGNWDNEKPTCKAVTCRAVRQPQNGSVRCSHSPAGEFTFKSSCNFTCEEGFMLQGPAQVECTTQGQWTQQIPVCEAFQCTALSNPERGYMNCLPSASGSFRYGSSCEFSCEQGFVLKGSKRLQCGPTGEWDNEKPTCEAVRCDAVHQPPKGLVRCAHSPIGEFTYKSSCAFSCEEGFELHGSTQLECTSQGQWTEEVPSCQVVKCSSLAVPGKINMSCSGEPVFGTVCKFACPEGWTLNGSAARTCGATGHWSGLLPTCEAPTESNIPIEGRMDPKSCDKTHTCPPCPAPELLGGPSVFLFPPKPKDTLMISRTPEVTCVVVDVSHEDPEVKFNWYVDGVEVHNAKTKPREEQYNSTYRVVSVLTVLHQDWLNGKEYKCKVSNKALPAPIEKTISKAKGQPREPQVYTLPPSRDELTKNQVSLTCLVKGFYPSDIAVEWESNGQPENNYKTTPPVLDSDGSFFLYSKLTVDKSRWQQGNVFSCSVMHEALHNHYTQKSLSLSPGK
Method: Surface Plasmon Resonance (SPR) measurements were performed on a Biacore X100 instrument (GE Healthcare). A CM5 sensor chip (GE Healthcare) was used for the interaction between E-selectin and GMI compound. Anti-human IgG (Fc) antibody (GE Healthcare) was immobilized onto the chip by amine coupling according to the manufacturer's instructions. In brief, after a 7-min injection (flow rate of 5 μl/min) of 1:1 mixture of N-ethyl-N′-(3-dimethylaminopropyl) carbodiimide hydrochloride and N-hydroxysuccinimide, anti-human IgG (Fc) antibody (25 μg/ml in 10 mM sodium acetate buffer, pH 5.0) was injected using a 6-min injection at 5 μl/min. Remaining activated groups were blocked by injecting 1 M ethanolamine/HCl, pH 8.5. The recombinant human E-selectin/CD63E Fc Chimera (50 μg/ml) (R & D systems) was injected into the experimental cell until 6000-7000 RU was captured onto the antibody surface. No recombinant human E-selectin/CD63E was injected into the control cell. Increasing concentrations of GMI compound samples were injected at 30 μl/min into both flow cells and all sensorgrams were recorded against the control. Regeneration of the anti-human IgG (Fc) surface was achieved by injecting 3M magnesium chloride, followed by 50 mM sodium hydroxide. Data were analyzed using Biacore X100 evaluation/BIA evaluation 4.1.1 software (GE Healthcare) and Graphad prism 6 software.

[2] = test system: TNFα-treated nude mice infused with human sickle RBCs; assay: Sickle cell vaso-occlusion, intravital microscopy and adhesion in nude mouse model; type: in vivo, Nude (nu−/nu−) mice
Method: In vivo treatment: Mice were divided into 3 groups. All mice were first injected I.P. with 500 ng TNFα to induce inflammation, activate the endothelium, and allow adhesion of murine leukocytes. After 2 hours, and once the endothelium is activated and murine leukocytes have already adhered, mice were infused with 200 μl of DIL (rhodamine)-labeled human sickle RBCs at 50% hematocrit (less than 10% murine blood volume assuming that blood volume for a 20 g weight mouse is 1.5 ml). We injected I.V. the three animal groups with the first dose of either Compound 45 at 20 μg/kg or 40 μg/kg, or saline (10 mL/kg) as vehicle immediately after infusion of human RBCs. The second dose was given 30 minutes later.
Window chamber surgery: Surgery was performed before TNFα administration. General anesthesia was achieved by exposing nude mice to isoflurane. A double-sided titanium frame window chamber was surgically implanted into the dorsal skin fold under sterile conditions using a laminar flow hood. Surgery involved carefully removing the epidermal and dermal layers of one side of a dorsal skin fold, exposing the blood vessels of the subcutaneous tissue adjacent to the striated muscles of the opposing skin fold, and then securing the two sides of the chamber to the skin using stainless steel screws and sutures. A glass window was placed in the chamber to cover the exposed tissue and secured with a snap ring.
Animal treatments, and fluorescence intravital microscopy: Anesthetized nude mice were first injected with 500 ng TNFα. After two hours, mice were infused with 200 μl DIL (rhodamine)-labeled human sickle RBCs at 50% hematocrit DIL through the dorsal tail vein.
Immediately after human RBC injection, nude mice were then injected I.V. with the first dose of either Compound 45 at 20 μg/kg (n=4) or 40 μg/kg (n=3), or saline (10 mL/kg) as vehicle (n=5). Videos were recorded for 30 minutes at different locations within the dorsal skin-fold window chamber to accurately determine the effects of Compound 45 on human sickle cell adhesion to the vascular endothelium and adherent murine leukocytes, and vaso-occlusion in the nude mice. Thirty minutes later, the second dose of either Compound 45 at 20 μg/kg (n=4) or 40 μg/kg (n=3), or vehicle (n=5) was injected I.V., and intravital microscopy measurements of blood cell flow dynamics in post-capillary venules and arterioles were resumed for another 30 minutes on anesthetized nude mice. Videos were again recorded at different locations within the dorsal skin-fold window chamber to accurately determine the effects of the second dose of Compound 45 on blood cell adhesion to the vascular endothelium, and vaso-occlusion. Videos were produced using 10× and 20× magnifications.
Cell adhesion was quantified on still images by measuring the fluorescence intensity [fluorescence unit (FU)] of adherent fluorescence-labeled human sickle cells using ImageJ software downloaded from the NIH website. Blood flow was also determined by counting the number of vessels with normal blood flow, slow blood flow, and no blood flow by frame-by-frame analysis of video replay. The values were averaged among groups of animals (n=5 for vehicle, n=4 for 40 μg/kg total Compound 45, and n=3 for 80 μg/kg total Compound 45) for non-blinded statistical analysis.
(§1) Method of Analysis: Human sickle RBC adhesion is presented as FU, blood flow as % normal blood flow, % slow blood flow and % no blood flow (or occluded vessels), and circulating human sickle RBCs as number of circulating sickle RBCs.

[3] = test system: TNFα-treated nude mice infused with human sickle RBCs; assay: Flow cytometry analysis of circulating human sickle RBCs in nude mice; type: in vivo, Nude (nu−/nu−) mice
Method: Flow cytometry analysis of circulating human sickle RBCs: Following intravital microscopy, blood samples were collected from nude mice treated with vehicle (n=3), 40 μg/kg total Compound 45 (n=3), and 80 μg/kg total Compound 45 (n=2), through cardiac puncture into EDTA tubes to determine the number of circulating human sickle RBCs by flow cytometry.
as §1

[4] = test system: TNFα-treated HbSS-Townes mice; assay: Sickle cell vaso-occlusion, intravital microscopy and adhesion in Townes mouse model; type: in vivo
Method: In vivo treatment: Townes mice were divided into 3 groups. All mice were first injected I.V. with PE-anti-mouse TER-119 antibody (10 μg/g BW) to label RBCs. Thirty minutes later, animals are injected with 500 ng TNFα I.P. to induce vaso-occlusion. After 90 minutes, and after onset of vaso-occlusion, sickle mice were treated I.V. with the first dose of either Compound 45 at 20 μg/kg or 40 μg/kg, or saline (10 mL/kg) as vehicle. The second dose was given 30 minutes later.
Window chamber surgery: For Townes mice experiments, surgery is carried out under sterile conditions with aseptic technique. Since these mice do have hair, it is necessary to shave and use hair removal cream on the back of the anesthetized mouse prior to cleaning the back of the animals, and performing surgery. Experimental studies are performed immediately after surgery, because in our experience, window chambers are not usable a few days after surgery. The skin is very dry, and blood cells cannot be visualized under the microscopy. In addition, sickle mice have been reported to have a mild inflammatory response to the dorsal skin-fold window chamber implantation, evidenced by elevated levels of serum amyloid P component (SAP) 3 days after surgery.
Intravital microscopy: Anesthetized animals with window chambers were placed on the stage of an Axoplan microscope (Carl Zeiss, Thornwood, N.Y.) and temperature maintained at 37° C. using a thermostatically controlled heating pad. […] Microcirculatory events and cell adhesion were simultaneously recorded using a computer connected to a digital video camera C2400 (Hamamatsu Photonics K.K., Japan). Visible venules were examined for each set of conditions. Arterioles were distinguished from venules based on: 1) observation of divergent flow as opposed to convergent flow; 2) birefringent appearance of vessel walls using transillumination, which is characteristic of arteriolar vascular smooth muscle; and 3) relatively straight vessel trajectory without evidence of tortuosity.
Data Analysis and Statistics were conducted as described above for the nude mouse model.

[5] = after second dose of 20 μg/kg I.V.
[6] = after the first dose of 40 μg/kg I.V.
[7] = after two doses of 40 μg/kg I.V.

- pKd [1]: 8.68
SMILES: CC[C@H]1C[C@@H](C(=O)NCCNC(=O)NCCNC(=O)[C@@H]2C[C@H](CC)[C@@H](O[C@@H]3O[C@@H](C)[C@@H](O)[C@@H](O)[C@@H]3O)[C@H](O[C@@H]3O[C@H](CO)[C@H](O)[C@H](O[C@@H](CC4CCCCC4)C(=O)N4CCC4)[C@H]3NC(C)=O)C2)C[C@@H](O[C@@H]2O[C@H](CO)[C@H](O)[C@H](O[C@@H](CC3CCCCC3)C(=O)N3CCC3)[C@H]2NC(C)=O)[C@@H]1O[C@@H]1O[C@@H](C)[C@@H](O)[C@@H](O)[C@@H]1O [Compound 45]
- percentage of the total occluded vessel segments [2, 5]: 2%
- total venules with slow blood flow [2, 5]: 16%
- human SSRBC adhesion compared to vehicle ([2]; after second dose of 20 μg/kg I.V. (40 μg/kg total), 30 min interval): significantly diminished
- percentage of obstructed total vessels [2, 6]: 2%
- vessels with slow blood flow [2, 6]: 12%
- percentage of obstructed total vessels [2, 7]: 4%
- vessels with slow blood flow [2, 7]: 8%
- blood flow in inflamed vessels ([2]; dose not given): improves blood flow
- human SSRBC adhesion after the inflammatory trigger of vaso-occlusion ([2]; dose not given): reduces human SSRBC adhesion
- human SSRBC adhesion compared to vehicle ([2]; one dose of 20 μg/kg I.V.): failed to reduce SSRBC adhesion
- human SSRBC adhesion ([2]; one dose of 40 μg/kg I.V.): marked anti-SSRBC adhesive activity
- human SSRBC adhesion ([2]; two doses of 40 μg/kg I.V. (80 μg/kg total), 30 min interval): marked anti-SSRBC adhesive activity; also recorded: effective in reducing cell adhesion in venules and vaso-occlusion and restoring blood flow
- number of circulating human SSRBCs compared to vehicle ([3]; two doses of 20 μg/kg I.V. at 30 min interval): increased significantly
- number of circulating human SSRBCs compared to vehicle ([3]; two doses of 40 μg/kg I.V. at 30 min interval): increased significantly
- SSRBC adhesion after the inflammatory trigger of vaso-occlusion ([4]; dose not given): reduces SSRBC adhesion
- blood flow in inflamed vessels ([4]; dose not given): improves blood flow
- adhesion of the sickle cells ([4]; two 20 μg/kg doses I.V.): significantly diminished
- reduction of the percentage of the total occluded vessel segments ([4]; two 20 μg/kg doses or two 40 μg/kg doses I.V.): 80-90%
- adhesion of the sickle cells ([4]; two 40 μg/kg doses I.V. (80 μg/kg total)): significantly diminished; also recorded: effective in reducing sickle RBCs adhesion in venules and vaso-occlusion and restoring blood flow

- pKd [1]: 8.07
SMILES: CC[C@H]1C[C@@H](C(=O)NCCNC(=O)CCOCCOCCOCCOCCOCCOCCOCCOCCOCCOCCOCCOCCOCCOCCOCCOCCOCCC(=O)NCCNC(=O)[C@@H]2C[C@H](CC)[C@@H](O[C@@H]3O[C@@H](C)[C@@H](O)[C@@H](O)[C@@H]3O)[C@H](O[C@@H]3O[C@H](CO)[C@H](O)[C@H](O[C@@H](CC4CCCCC4)C(=O)O)[C@H]3NC(C)=O)C2)C[C@@H](O[C@@H]2O[C@H](CO)[C@H](O)[C@H](O[C@@H](CC3CCCCC3)C(=O)O)[C@H]2NC(C)=O)[C@@H]1O[C@@H]1O[C@@H](C)[C@@H](O)[C@@H](O)[C@@H]1O [Compound 11]

- pKd [1]: 8.43
SMILES: CC[C@H]1C[C@@H](C(=O)NCCNC(=O)CCOCCOCCOCCOCCOCCOCCOCCOCCOCCOCCOCCOCCOCCOCCOCCOCCOCCOCCOCCOCCOCCOCCOCCOCCOCCC(=O)NCCNC(=O)[C@@H]2C[C@H](CC)[C@@H](O[C@@H]3O[C@@H](C)[C@@H](O)[C@@H](O)[C@@H]3O)[C@H](O[C@@H]3O[C@H](CO)[C@H](O)[C@H](O[C@@H](CC4CCCCC4)C(=O)O)[C@H]3NC(C)=O)C2)C[C@@H](O[C@@H]2O[C@H](CO)[C@H](O)[C@H](O[C@@H](CC3CCCCC3)C(=O)O)[C@H]2NC(C)=O)[C@@H]1O[C@@H]1O[C@@H](C)[C@@H](O)[C@@H](O)[C@@H]1O [Compound 12]

- pKd [1]: 8.55
SMILES: CC[C@H]1C[C@@H](C(=O)NCCNC(=O)CCOCCOCCOCCOCCC(=O)NCCNC(=O)[C@@H]2C[C@H](CC)[C@@H](O[C@@H]3O[C@@H](C)[C@@H](O)[C@@H](O)[C@@H]3O)[C@H](O[C@@H]3O[C@H](CO)[C@H](O)[C@H](O[C@@H](CC4CCCCC4)C(=O)N4CCC4)[C@H]3NC(C)=O)C2)C[C@@H](O[C@@H]2O[C@H](CO)[C@H](O)[C@H](O[C@@H](CC3CCCCC3)C(=O)N3CCC3)[C@H]2NC(C)=O)[C@@H]1O[C@@H]1O[C@@H](C)[C@@H](O)[C@@H](O)[C@@H]1O [Compound 23]

- pKd [1]: 8.29
SMILES: CC[C@H]1C[C@@H](C(=O)NCCNC(=O)CCOCCOCCOCCOCCC(=O)NCCNC(=O)[C@@H]2C[C@H](CC)[C@@H](O[C@@H]3O[C@@H](C)[C@@H](O)[C@@H](O)[C@@H]3O)[C@H](O[C@@H]3O[C@H](CO)[C@H](O)[C@H](O[C@@H](CC4CCCCC4)C(=O)O)[C@H]3NC(C)=O)C2)C[C@@H](O[C@@H]2O[C@H](CO)[C@H](O)[C@H](O[C@@H](CC3CCCCC3)C(=O)O)[C@H]2NC(C)=O)[C@@H]1O[C@@H]1O[C@@H](C)[C@@H](O)[C@@H](O)[C@@H]1O [Compound 17]

- pKd [1]: 8.82
SMILES: CCC1CC(C(=O)NCCNC(=O)CCC(=O)NCCN(CCNC(=O)CCC(=O)NCCNC(=O)C2CC(CC)C(OC3OC(C)C(O)C(O)C3O)C(OC3OC(CO)C(O)C(OC(CC4CCCCC4)C(=O)O)C3NC(C)=O)C2)CCNC(=O)CCC(=O)NCCNC(=O)C2CC(CC)C(OC3OC(C)C(O)C(O)C3O)C(OC3OC(CO)C(O)C(OC(CC4CCCCC4)C(=O)O)C3NC(C)=O)C2)CC(OC2OC(CO)C(O)C(OC(CC3CCCCC3)C(=O)O)C2NC(C)=O)C1OC1OC(C)C(O)C(O)C1O (stereo not shown) [Compound 42]
